The values below come from patent US8889704B2 (Array BioPharma Inc., priority 2011, dated 2014).

pIC50: −log10 of the molar value. Counter-ions that a name gives are not always drawn.

Common to all, as to format: biochemical
For one experiment, the target named is PIM-1 (Homo sapiens, UniProt P11309). Nature of the experiment: Enzyme PIM-1 Assay ([33P]ATP incorporation into PIM2tide, filter plate). Conditions: averaged IC50; 35 μM ATP, 7.5 μM PIM2tide, 0.25 nM PIM-1, 60 min at 22° C. The gist of the method: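 Ten-point, 3-fold dilution series (10 μM top, 2% DMSO final) tested for inhibition of 33P transfer from 35 μM ATP to 7.5 μM PIM2tide by 0.25 nM PIM-1. Reaction 60 min, 22 °C, pH 7.4 MOPS/MgCl2 buffer; phosphocellulose capture, scintillation counting, IC50 where fitted POC equals 50.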

For experiment [1], the target named is T1, GST-tagged recombinant full-length human Pim-2 (Homo sapiens, UniProt Q9P1W9).
T1 construct: GST-tagged recombinant full-length human Pim-2; GST
In words: PIM-2 Assay (as Example A). The following applies: averaged IC50; 4 μM ATP, 1.0 μM PIM2tide, 1.5 nM Pim-2. The gist of the method:
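IC50 was derived by 4-parameter logistic fitting of percent-of-control data over a 10-point, 3-fold series (highest 10 μM, 2% DMSO). Reactions held 1.5 nM GST-Pim-2 (full-length, human), 4 μM [γ-33P]ATP and 1.0 μM PIM2tide for 60 min at 22 °C, pH 7.4; 33P-peptide captured on P81 filters.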

A further experiment deals with recombinant rat PIM-3 (Rattus norvegicus, UniProt O70444). In words: PIM-3 Assay (as Example A). Conditions: averaged IC50; 30 μM ATP, 3.75 μM PIM2tide, 0.5 nM PIM-3. The gist of the method: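 33P incorporation from 30 μM [γ-33P]ATP into 3.75 μM PIM2tide by 0.5 nM rat PIM-3, 60 min at 22 °C in pH 7.4 MOPS buffer, read by P81 filter capture and scintillation counting. Compounds tested in 3-fold dilutions up to 10 μM final, 2% DMSO; percent-of-control data fitted by 4-parameter logistic for IC50.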

PIM-1, sequence (P11309 whole entry, species assumed): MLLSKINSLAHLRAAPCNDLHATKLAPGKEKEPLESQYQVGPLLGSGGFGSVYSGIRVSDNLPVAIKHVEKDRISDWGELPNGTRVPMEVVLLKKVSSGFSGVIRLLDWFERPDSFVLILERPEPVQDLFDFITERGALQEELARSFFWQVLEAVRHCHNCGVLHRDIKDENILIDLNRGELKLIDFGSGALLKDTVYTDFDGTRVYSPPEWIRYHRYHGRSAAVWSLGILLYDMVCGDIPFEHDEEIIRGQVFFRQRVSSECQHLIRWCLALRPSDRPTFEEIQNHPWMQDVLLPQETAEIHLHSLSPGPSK
T1 sequence (Q9P1W9 whole entry): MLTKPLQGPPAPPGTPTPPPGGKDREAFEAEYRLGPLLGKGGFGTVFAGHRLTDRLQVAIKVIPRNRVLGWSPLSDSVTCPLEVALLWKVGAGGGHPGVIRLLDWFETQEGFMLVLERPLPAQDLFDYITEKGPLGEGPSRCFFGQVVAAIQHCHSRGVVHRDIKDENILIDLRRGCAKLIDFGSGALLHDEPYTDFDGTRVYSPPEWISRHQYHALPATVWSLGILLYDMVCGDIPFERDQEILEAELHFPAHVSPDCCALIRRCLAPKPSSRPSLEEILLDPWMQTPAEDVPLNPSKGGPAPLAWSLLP

As to `CCOc1cc2nc(-c3nnc4ccc([C@H](N5CC[C@@H](CN)C5)C(F)(F)F)cn34)ccc2cc1F` [Example 295, ((S)-1-((S)-1-(3-(7-ethoxy-6-fluoroquinolin-2-yl)-[1,2,4]triazolo[4,3-a]pyridin-6-yl)-2,2,2-trifluoroethyl)pyrrolidin-3-yl)methanamine hydrochloride], the pIC50 at PIM-1 is 8.59; in experiment [1], 6.28; on recombinant rat PIM-3 it was 7.92.
For `CCOc1cc2nc(-c3nnc4ccc([C@H](N5CC[C@@H](N)C5)C(F)(F)F)cn34)ccc2cc1F` [Example 292, (R)-1-((S)-1-(3-(7-ethoxy-6-fluoroquinolin-2-yl)-[1,2,4]triazolo[4,3-a]pyridin-6-yl)-2,2,2-trifluoroethyl)pyrrolidin-3-amine hydrochloride] the same measures were 9.19, 7.17 and 8.96.
Turning to `Cn1cc(-c2ccc3ccc(-c4nnc5ccc(C(N6CC[C@H](N)C6)C(F)(F)F)cn45)nc3c2)cn1` (stereo partly drawn) [Example 4, (3S)-1-(2,2,2-trifluoro-1-(3-(7-(1-methyl-1H-pyrazol-4-yl)quinolin-2-yl)-[1,2,4]triazolo[4,3-a]pyridin-6-yl)ethyl)pyrrolidin-3-amine trihydrochloride], the figures for the pIC50 (against PIM-1; in experiment [1]; on recombinant rat PIM-3) were 9.08, 6.35 and 7.92, respectively.
`N[C@H]1CCN([C@H](c2ccc3nnc(-c4ccc5cccc(F)c5n4)n3c2)C(F)(F)F)C1` [Example 168, (S)-1-((R)-2,2,2-trifluoro-1-(3-(8-fluoroquinolin-2-yl)-[1,2,4]triazolo[4,3-a]pyridin-6-yl)ethyl)pyrrolidin-3-amine dihydrochloride]: the pIC50 against PIM-1 is 8.76; in experiment [1], less than 7.00; on recombinant rat PIM-3, 7.82.
Regarding `CCOc1cc2nc(-c3nnc4ccc([C@H](N5CCC(N)(CC)C5)C(F)(F)F)cn34)ccc2cc1F` (single isomer, unassigned; diastereomer 1) [Example 251, dihydrochloride], the negative logarithm of the IC50 (pIC50) was 9.12 against PIM-1, 6.99 in experiment [1] and 9.10 on recombinant rat PIM-3.
Taken in the same sequence, the figures for `C[C@H](CO)Oc1cccc2ccc(-c3nnc4ccc([C@@H](N5CC[C@H](N)C5)C(F)(F)F)cn34)nc12` [Example 186, (R)-2-(2-(6-((R)-1-((S)-3-aminopyrrolidin-1-yl)-2,2,2-trifluoroethyl)-[1,2,4]triazolo[4,3-a]pyridin-3-yl)quinolin-8-yloxy)propan-1-ol dihydrochloride] were 9.80, 7.17 and 9.40.
For `CN[C@H]1CCN([C@H](c2ccc3nnc(-c4ccc5ccc(C(=O)NC(C)C)cc5n4)n3c2)C(F)(F)F)C1` [Example 57, N-isopropyl-2-(6-((R)-2,2,2-trifluoro-1-((S)-3-(methylamino)pyrrolidin-1-yl)ethyl)-[1,2,4]triazolo[4,3-a]pyridin-3-yl)quinoline-7-carboxamide] the same measures were 9.35, less than 7.00 and 9.05.
Taken in the same sequence, the figures for `CC1(O)CCN([C@H](c2ccc3nnc(-c4ccc5cccc(C(C)(C)C)c5n4)n3c2)C(F)(F)F)C1` (single isomer, unassigned; diastereomer 2) [Example 196, hydrochloride] were 7.37, less than 6.00 and less than 7.00.
Consider `COc1cc(F)cc2ccc(-c3nnc4ccc([C@@H](N5CC[C@@](C)(N)C5)C(F)(F)F)cn34)nc12` [Example 241, (R)-3-methyl-1-((R)-2,2,2-trifluoro-1-(3-(6-fluoro-8-methoxyquinolin-2-yl)-[1,2,4]triazolo[4,3-a]pyridin-6-yl)ethyl)pyrrolidin-3-amine dihydrochloride], for which the figures for the pIC50 (on PIM-1; in experiment [1]; at recombinant rat PIM-3) were 8.59, less than 6.00 and 7.77, respectively.
Taken in the same sequence, the figures for `COc1cccc2ccc(-c3nnc4ccc(C(N5CC[C@H](N)C5)C(F)(F)F)cn34)nc12` (stereo partly drawn) [Example 1, (3S)-1-(2,2,2-trifluoro-1-(3-(8-methoxyquinolin-2-yl)-[1,2,4]triazolo[4,3-a]pyridin-6-yl)ethyl)pyrrolidin-3-amine dihydrochloride] were 9.37, 6.79 and 8.77.
As for `CC1(COc2ccc3ccc(-c4nnc5ccc([C@@H](N6CC[C@H](N)C6)C(F)(F)F)cn45)nc3c2)COC1` [Example 198, (S)-1-((R)-2,2,2-trifluoro-1-(3-(7-((3-methyloxetan-3-yl)methoxy)quinolin-2-yl)-[1,2,4]triazolo[4,3-a]pyridin-6-yl)ethyl)pyrrolidin-3-amine diformate], the pIC50 against PIM-1 is 9.85; in experiment [1], 6.91; on recombinant rat PIM-3, 9.70.
For `CCSc1cccc2ccc(-c3nnc4ccc([C@@H](N5CC[C@H](N)C5)C(F)(F)F)cn34)nc12` [Example 273, (S)-1-((R)-1-(3-(8-(ethylthio)quinolin-2-yl)-[1,2,4]triazolo[4,3-a]pyridin-6-yl)-2,2,2-trifluoroethyl)pyrrolidin-3-amine hydrochloride] the same measures were 7.59, less than 6.00 and 7.37.
With `COc1cc(C)cc2ccc(-c3nnc4ccc([C@@H](N5CC[C@H](N)C5)C(F)(F)F)cn34)nc12` [Example 127, (S)-1-((R)-2,2,2-trifluoro-1-(3-(8-methoxy-6-methylquinolin-2-yl)-[1,2,4]triazolo[4,3-a]pyridin-6-yl)ethyl)pyrrolidin-3-amine hydrochloride], the pIC50 is 8.48 against PIM-1, less than 7.00 in experiment [1] and 7.96 at recombinant rat PIM-3.
For `N[C@H]1CCN([C@H](c2ccc3nnc(-c4ccc5ccc(F)c(C6CC6)c5n4)n3c2)C(F)(F)F)C1` [Example 60, (S)-1-((R)-1-(3-(8-cyclopropyl-7-fluoroquinolin-2-yl)-[1,2,4]triazolo[4,3-a]pyridin-6-yl)-2,2,2-trifluoroethyl)pyrrolidin-3-amine dihydrochloride] the same measures were 9.72, 7.11 and 8.40.
For `CC(C)NC(=O)c1ccc2ccc(-c3nnc4ccc(C(N5CC[C@H](N)C5)C(F)(F)F)cn34)nc2c1` (stereo partly drawn) [Example 30, 2-(6-(1-((S)-3-aminopyrrolidin-1-yl)-2,2,2-trifluoroethyl)-[1,2,4]triazolo[4,3-a]pyridin-3-yl)-N-isopropylquinoline-7-carboxamide dihydrochloride] the same measures were 9.49, 7.20 and 9.05.
For `COc1cc(F)cc2ccc(-c3nnc4ccc([C@H](N5CC[C@](C)(N)C5)C(F)(F)F)cn34)nc12` [Example 218, (S)-3-methyl-1-((S)-2,2,2-trifluoro-1-(3-(6-fluoro-8-methoxyquinolin-2-yl)-[1,2,4]triazolo[4,3-a]pyridin-6-yl)ethyl)pyrrolidin-3-amine] the same measures were 9.59, 7.48 and 9.40.
As to `N[C@H]1CCN([C@H](c2ccc3nnc(-c4ccc5cc(F)cc(OCCCO)c5n4)n3c2)C(F)(F)F)C1` [Example 229, 3-(2-(6-((R)-1-((S)-3-aminopyrrolidin-1-yl)-2,2,2-trifluoroethyl)-[1,2,4]triazolo[4,3-a]pyridin-3-yl)-6-fluoroquinolin-8-yloxy)propan-1-ol dihydrochloride], the negative logarithm of the IC50 (pIC50) against PIM-1 was 9.89; in experiment [1] it was 7.26; at recombinant rat PIM-3, 9.52.
For `COc1cccc2ccc(-c3nnc4ccc([C@@H](N5CC[C@H](N)C5)C(F)(F)F)cn34)nc12` [Example 9, (S)-1-((R)-2,2,2-trifluoro-1-(3-(8-methoxyquinolin-2-yl)-[1,2,4]triazolo[4,3-a]pyridin-6-yl)ethyl)pyrrolidin-3-amine dihydrochloride] the same measures were 9.17, 6.39 and 8.38.
Regarding `CCC(CC)C(=O)OCCOc1cc2nc(-c3nnc4ccc([C@@H](N5CC[C@H](N)C5)C(F)(F)F)cn34)ccc2cc1F` [Example 288, 2-(2-(6-((R)-1-((S)-3-aminopyrrolidin-1-yl)-2,2,2-trifluoroethyl)-[1,2,4]triazolo[4,3-a]pyridin-3-yl)-6-fluoroquinolin-7-yloxy)ethyl 2-ethylbutanoate], the results for the pIC50 (at PIM-1; in experiment [1]; on recombinant rat PIM-3) were 8.03, less than 6.00 and 7.25, respectively.
With `N[C@H]1CCN([C@H](c2ccc3nnc(-c4ccc5ccc(C6COC6)cc5n4)n3c2)C(F)(F)F)C1` [Example 316, (S)-1-((R)-2,2,2-trifluoro-1-(3-(7-(oxetan-3-yl)quinolin-2-yl)-[1,2,4]triazolo[4,3-a]pyridin-6-yl)ethyl)pyrrolidin-3-amine], the negative logarithm of the IC50 (pIC50) was 9.32 against PIM-1, 6.12 in experiment [1] and 8.55 on recombinant rat PIM-3.

Usually pIC50 stands for the IC50 on a negative log10 scale, so that one unit is a factor of ten.
